Toxic doses and inconclusive results are not listed. How the source made its calls: active means survival T/C of 150% or more; inactive means T/C below 125% in these data.
Test system: CD2F1 mice, L1210 leukemia ip, survival T/C
Assay: NCI In Vivo Anticancer Drug Screen. Data for tumor model L1210 Leukemia (intraperitoneal) in CD2F1 (CDF1) mice
Settings: higher = longer survival
Summary of the method: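 Antitumor effect is scored in animals hosting a serially transplanted tumor. Values compare compound-dosed animals against vehicle-only controls as a simple quotient.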

[1] = endpoint: mean survival time, dose: 100.0 mg/kg/injection, schedule: Q04DX003 (ip), vehicle: saline with Tween-80
[2] = endpoint: mean survival time, dose: 200.0 mg/kg/injection, schedule: Q04DX003 (ip), vehicle: saline with Tween-80
[3] = endpoint: mean survival time, dose: 400.0 mg/kg/injection, schedule: Q04DX003 (ip), vehicle: saline with Tween-80
[4] = endpoint: mean survival time, dose: 75.0 mg/kg/injection, schedule: Q01DX001 (ip), vehicle: other
[5] = endpoint: mean survival time, dose: 150.0 mg/kg/injection, schedule: Q01DX001 (ip), vehicle: other
[6] = endpoint: mean survival time, dose: 100.0 mg/kg/injection, schedule: Q01DX009 (ip), vehicle: saline
[7] = endpoint: mean survival time, dose: 200.0 mg/kg/injection, schedule: Q01DX009 (ip), vehicle: saline
[8] = endpoint: mean survival time, dose: 100.0 mg/kg/injection, schedule: Q04DX002 (ip), vehicle: saline
[9] = endpoint: mean survival time, dose: 100.0 mg/kg/injection, schedule: Q01DX009 (ip), vehicle: saline with Tween-80
[10] = endpoint: mean survival time, dose: 200.0 mg/kg/injection, schedule: Q01DX009 (ip), vehicle: saline with Tween-80
[11] = endpoint: mean survival time, dose: 400.0 mg/kg/injection, schedule: Q01DX009 (ip), vehicle: saline with Tween-80
[12] = endpoint: mean survival time, dose: 25.0 mg/kg/injection, schedule: Q04DX003 (ip), vehicle: saline
[13] = endpoint: mean survival time, dose: 50.0 mg/kg/injection, schedule: Q04DX003 (ip), vehicle: saline
[14] = endpoint: mean survival time, dose: 100.0 mg/kg/injection, schedule: Q04DX003 (ip), vehicle: saline
[15] = endpoint: mean survival time, dose: 200.0 mg/kg/injection, schedule: Q04DX003 (ip), vehicle: saline
[16] = endpoint: mean survival time, dose: 400.0 mg/kg/injection, schedule: Q04DX003 (ip), vehicle: saline
[17] = endpoint: mean survival time, dose: 300.0 mg/kg/injection, schedule: Q01DX001 (ip), vehicle: other
[18] = endpoint: mean survival time, dose: 100.0 mg/kg/injection, schedule: Q01DX001 (ip), vehicle: saline with Tween-80
[19] = endpoint: mean survival time, dose: 50.0 mg/kg/injection, schedule: Q01DX009 (ip), vehicle: saline with Tween-80

Measured: T/C

CN(C)CC1CCCCC(Br)C1=O (stereo not given)
inactive: endpoint: mean survival time, dose: 75.0 mg/kg/injection, schedule: Q01DX001 (ip), vehicle: saline 98 % of control | endpoint: mean survival time, dose: 150.0 mg/kg/injection, schedule: Q01DX001 (ip), vehicle: saline 107 % of control | endpoint: mean survival time, dose: 300.0 mg/kg/injection, schedule: Q01DX001 (ip), vehicle: saline 117 % of control

CCCCCCCCCCC(N)P(=O)(O)O (stereo not given)
inactive: endpoint: mean survival time, dose: 25.0 mg/kg/injection, schedule: Q04DX003 (ip), vehicle: saline with Tween-80 91 % of control | endpoint: mean survival time, dose: 50.0 mg/kg/injection, schedule: Q04DX003 (ip), vehicle: saline with Tween-80 91 % of control

CC(C)CC(NC(=O)c1ccccc1)C(=O)O (stereo not given)
inactive: [1] 95 % of control | [2] 95 % of control | [3] 101 % of control

C/C(=N\O)C(C)(O)C(C)(C)C (stereo not given)
inactive: [1] 90 % of control | [2] 98 % of control | [3] 93 % of control

COC12CC(COC(=O)c3cncc(Br)c3)CN(C)C1Cc1cn(C)c3cccc2c13 (stereo not given)
inactive: endpoint: mean survival time, dose: 100.0 mg/kg/injection, schedule: Q04DX003 (ip), vehicle: alcohol 105 % of control | endpoint: mean survival time, dose: 200.0 mg/kg/injection, schedule: Q04DX003 (ip), vehicle: alcohol 102 % of control | endpoint: mean survival time, dose: 400.0 mg/kg/injection, schedule: Q04DX003 (ip), vehicle: alcohol 111 % of control

C=CCNc1ncnc2c1ncn2C1OC(CO)C(O)C1O (stereo not given)
inactive: [4] 112 % of control | [5] 103 % of control

C#CCOC(=O)Nc1cccc2ccccc12
inactive: endpoint: mean survival time, dose: 100.0 mg/kg/injection, schedule: Q04DX003 (ip), vehicle: Klucel (hydroxypropylcellulose) (HPC) 100 % of control | endpoint: mean survival time, dose: 200.0 mg/kg/injection, schedule: Q04DX003 (ip), vehicle: Klucel (hydroxypropylcellulose) (HPC) 96 % of control | endpoint: mean survival time, dose: 400.0 mg/kg/injection, schedule: Q04DX003 (ip), vehicle: Klucel (hydroxypropylcellulose) (HPC) 94 % of control

Brc1c(Br)c(Br)c2n[nH]nc2c1Br
inactive: endpoint: mean survival time, dose: 50.0 mg/kg/injection, schedule: Q01DX009 (ip), vehicle: saline 104 % of control | [6] 104 % of control | [7] 108 % of control

CCCCn1c2ccccc2c2ccccc21
inactive: [1] 94 % of control | [3] 94 % of control

O.O.O=S(=O)(O)O.[Co+3].[NH2-].[NH2-].[NH2-].[NH2-]
inactive: [8] 108 % of control

O=C1OC(=O)C2C3CC(C4OC34)C12 (stereo not given)
inactive: [9] 103 % of control | [10] 97 % of control | [11] 87 % of control

C=C(OP(=O)(OC)OC)Sc1ccccc1C
inactive: endpoint: median survival time, dose: 0.38 mg/kg/injection, schedule: Q01DX009 (ip), vehicle: Klucel (hydroxypropylcellulose) (HPC) 101 % of control | endpoint: median survival time, dose: 0.75 mg/kg/injection, schedule: Q01DX009 (ip), vehicle: Klucel (hydroxypropylcellulose) (HPC) 101 % of control

Cc1cn(C2CC(O)C(COC(c3ccccc3)(c3ccccc3)c3ccc(OCC(=O)O)cc3)O2)c(=O)[nH]c1=O (stereo not given)
inactive: endpoint: mean survival time, dose: 12.5 mg/kg/injection, schedule: Q01DX005 (ip), vehicle: distilled water + Tween-80 100 % of control | endpoint: mean survival time, dose: 25.0 mg/kg/injection, schedule: Q01DX005 (ip), vehicle: distilled water + Tween-80 97 % of control | endpoint: mean survival time, dose: 50.0 mg/kg/injection, schedule: Q01DX005 (ip), vehicle: distilled water + Tween-80 96 % of control | endpoint: mean survival time, dose: 100.0 mg/kg/injection, schedule: Q01DX005 (ip), vehicle: distilled water + Tween-80 102 % of control | endpoint: mean survival time, dose: 200.0 mg/kg/injection, schedule: Q01DX005 (ip), vehicle: distilled water + Tween-80 94 % of control

CCCCCCCC(=O)N1CCCN(C(=O)CCCCCCC)C1
inactive: [12] 94 % of control | [13] 95 % of control | [14] 97 % of control

COc1ccc(C(C)C(O)c2ccccc2)cc1 (stereo not given)
inactive: [14] 103 % of control | [15] 108 % of control | [16] 102 % of control

CN(C)CC1CN(C)CC(CN(C)C)C1(O)C(C(=O)N(C)C)c1ccccc1 (stereo not given)
inactive: [4] 98 % of control | [5] 100 % of control | [17] 98 % of control

O=C1C=CC(=Nc2ccccc2Cl)O1
inactive: [1] 103 % of control | [2] 101 % of control | [3] 100 % of control

O=C1C2C(c3ccccc3)=C(c3ccccc3)C1[C@@]1(c3ccccc3)C(c3ccccc3)=CC(=O)[C@@H]21 (stereo not given in full)
inactive: [18] 87 % of control | endpoint: mean survival time, dose: 400.0 mg/kg/injection, schedule: Q01DX001 (ip), vehicle: saline with Tween-80 89 % of control

C[Si]1(C)N(c2ccccc2)[Si](C)(C)N(c2ccccc2)[Si](C)(C)N1c1ccccc1
inactive: [9] 105 % of control | [1] 105 % of control | [10] 107 % of control | [2] 94 % of control | [11] 106 % of control | [3] 93 % of control

Nc1[nH]c(=O)[nH]c(=O)c1N
inactive: [19] 93 % of control | [9] 93 % of control | [8] 97 % of control | [1] 108 % of control | [10] 93 % of control | endpoint: mean survival time, dose: 200.0 mg/kg/injection, schedule: Q04DX002 (ip), vehicle: saline 97 % of control | [2] 108 % of control

OC(c1ccccc1)(c1ccccc1)c1ccccc1 (tested in a mixture with another compound)
inactive: [1] 98 % of control | [2] 91 % of control | [3] 97 % of control

NC(Cc1cccc(NP(=S)(N2CC2)N2CC2)c1)C(=O)O (stereo not given)
inactive: [6] 119 % of control | [14] 113 % of control | [7] 100 % of control

CN=C1N[N+]2=CCCCC2S1 (stereo not given)
inactive: [12] 94 % of control | [13] 94 % of control

Cc1csc2nc[nH]c(=O)c12
inactive: [9] 97 % of control | [10] 98 % of control | [11] 105 % of control

CC(=O)N/N=C\C1=CCC=C(Br)S1
inactive: [19] 107 % of control | [18] 93 % of control | [9] 107 % of control | endpoint: mean survival time, dose: 200.0 mg/kg/injection, schedule: Q01DX001 (ip), vehicle: saline with Tween-80 102 % of control | [10] 116 % of control

O=C1CC2C3C=CC(C12)C1C(=O)OC(=O)C31 (stereo not given)
inactive: [14] 107 % of control | [15] 98 % of control | [16] 91 % of control

O=C(O)CNC(=O)C(Br)Cc1ccccc1 (stereo not given)
inactive: [1] 101 % of control | [2] 101 % of control | [3] 103 % of control

c1ccc(COCCOCc2ccccc2)cc1
inactive: [1] 96 % of control | [2] 97 % of control | [3] 108 % of control

CCCCOC(=O)/C=C\C(=O)OC(C)C(=O)OCCCC (stereo not given)
inactive: endpoint: median survival time, dose: 50.0 mg/kg/injection, schedule: Q04DX002 (ip), vehicle: saline with Tween-80 100 % of control | endpoint: median survival time, dose: 100.0 mg/kg/injection, schedule: Q04DX002 (ip), vehicle: saline with Tween-80 100 % of control | endpoint: median survival time, dose: 200.0 mg/kg/injection, schedule: Q04DX002 (ip), vehicle: saline with Tween-80 100 % of control | endpoint: median survival time, dose: 400.0 mg/kg/injection, schedule: Q04DX002 (ip), vehicle: saline with Tween-80 88 % of control

COC1OC(COC(=O)c2ccccc2)C(N(C)C(C)=O)C1OC(=O)c1ccccc1 (stereo not given)
inactive: [4] 97 % of control | [5] 103 % of control | [17] 91 % of control

COC(=O)C1=C(NC(=O)Nc2ccc(OC)cc2)OC(C)(C)C1c1ccc(Cl)cc1 (stereo not given)
inactive: [9] 93 % of control | [1] 92 % of control | [10] 93 % of control | [2] 87 % of control | [11] 94 % of control | [3] 92 % of control

Source: PubChem BioAssay AID256 (DTP/NCI, 2004)
